Patent US11352350B2, “IRAK degraders and uses thereof” (Kymera Therapeutics, Inc., priority 2018, dated 2022)

What was measured:
Assay type in all cases: cell-based
TNFα = assay: Human whole blood LPS TNFα assay; settings: 20 h pretreatment, LPS 5 h, read-out: IRAK4 human whole blood LPS TNFa inhibition: Average external-IC50
Procedure, shortened: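 Fresh human whole blood pretreated 20 h at 37 °C with compound (8-point, 5-fold dilution from 2 μM start), then stimulated with 100 ng/ml LPS (final) for 5 h. Plasma TNFα quantified by MSD V-plex, normalised to stimulated and unstimulated controls; IC50 from 4-parameter logistic fit.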

IRAK4 [1] = target: T1, IRAK4 (Homo sapiens (Human), UniProt Q9NWZ3); assay: IRAK4 MSD degradation in OCI-LY10; settings: for DC50: OCI-LY10, 4 hrs, MSD, read-out: IRAK4 MSD degradation in OCI-LY10 at 4 hrs: Average external-Abs DC50
Procedure, shortened: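 Remaining IRAK4 quantified by electrochemiluminescent MSD sandwich assay with two anti-IRAK4 antibodies. Compounds were dosed as 8 concentrations in 1:3 steps from a 1 to 10 μM final top on OCI-LY10 cells, incubated 4 to 24 h at 37° C. under 5% CO2. DC50 fitted with a three-parameter logistic curve.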

IRAK4 [2] = target: T1, IRAK4; assay: IRAK4 degradation in human whole blood lymphocyte - flow cytometry; settings: read-out: IRAK4 degradation in whole blood lymphocyte-Flow cytometry: Average external Abs IC50
Procedure, shortened: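 Fresh heparinized human whole blood dosed (10-point, 5-fold, 0.1% DMSO) for 20 h or 4 h at 37 °C, then fixed, stained and IRAK4 MFI quantified by flow in CD14+ monocytes and CD14− lymphocytes. DC50 and Dmax via 4-parameter logistic fit normalized to DMSO and 10 μM control.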

IRAK4 [3] = target: T1, IRAK4; assay: IRAK4 WB degradation (DC50)
IRAK4 [4] = target: T1, IRAK4; assay: IRAK4 degradation in OCI-LY10 (DC50)

T1 sequence (Q9NWZ3 whole entry): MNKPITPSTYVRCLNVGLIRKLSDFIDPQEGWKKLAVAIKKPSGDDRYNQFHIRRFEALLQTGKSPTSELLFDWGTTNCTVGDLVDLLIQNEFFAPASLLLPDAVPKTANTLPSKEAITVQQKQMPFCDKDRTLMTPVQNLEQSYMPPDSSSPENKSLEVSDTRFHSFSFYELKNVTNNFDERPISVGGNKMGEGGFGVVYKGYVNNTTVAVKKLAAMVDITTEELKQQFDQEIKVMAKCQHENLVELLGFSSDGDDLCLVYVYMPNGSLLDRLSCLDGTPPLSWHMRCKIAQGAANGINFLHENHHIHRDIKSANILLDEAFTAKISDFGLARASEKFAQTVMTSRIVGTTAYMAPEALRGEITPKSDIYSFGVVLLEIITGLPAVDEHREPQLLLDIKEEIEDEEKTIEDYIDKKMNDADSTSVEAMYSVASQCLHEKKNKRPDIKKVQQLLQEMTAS

CN(CCCOCCCc1cccc2c1n(C)c(=O)n2C1CCC(=O)NC1=O)C[C@H]1CC[C@H](n2cc(NC(=O)c3coc(-c4ccnc(NCC5CC5)c4)n3)c(C(F)F)n2)CC1 (mixture of isomers) [I-30, 2-[2-(Cyclopropylmethylamino)-4-pyridyl]-N-[3-(difluoromethyl)-1-[4-[[3-[3-[1-(2,6-dioxo-3-piperidyl)-3-methyl-2-oxo-benzimidazol-4-yl]propoxy]propyl-methyl-amino]methyl]cyclohexyl]pyrazol-4-yl] oxazole-4-carboxamide]
IC50 (TNFα): 100 to 500 nM | DC50 (IRAK4 [1]): < 10 nM | depletion of IRAK4 in MYD88 mutant lymphoma cell lines (IRAK4 [1]; OCI-LY10 and TMD8, FIGS. 1-3 and 10): potent depletion of IRAK4 | DC50 (IRAK4 [2]): < 50 nM

CN(C[C@H]1CC[C@H](n2cc(NC(=O)c3coc(-c4ccnc(NCC5CC5)c4)n3)c(C(F)F)n2)CC1)C1CCN(Cc2cccc3c2n(C)c(=O)n3C2CCC(=O)NC2=O)CC1 (stereo partly shown) [I-75, 2-(2-((cyclopropylmethyl)amino)pyridin-4-yl)-N-(3-(difluoromethyl)-1-((1r,4r)-4-(((1-((1-(2,6-dioxopiperidin-3-yl)-3-methyl-2-oxo-2,3-dihydro-1H-benzo[d]imidazol-4-yl)methyl)piperidin-4-yl)(methyl)amino)methyl)cyclohexyl)-1H-pyrazol-4-yl)oxazole-4-carboxamide]
IC50 (TNFα): > 1000 nM | DC50 (IRAK4 [1]): < 10 nM | DC50 (IRAK4 [2]): 50 to 100 nM | DC50 (IRAK4 [3]): 23 nM | DC50 (IRAK4 [4]; read-out: IRAK4 Degradation in OCI-LY10, DC50): 8 nM | DC50 (IRAK4 [4]; read-out: IRAK4 OCI-LY10 DC50): 8 nM
